Assays:
Leishmania major [1] = assay: Potency index, ratio of iC50 for miltefosine IC50 to test compound IC50 for antileishmanial activity against Leishmania major promastigotes; type: functional
Leishmania major [2] = assay: Antileishmanial activity against Leishmania major amastigotes incubated for 24 hrs measured by alamar blue staining based fluorescence analysis; type: functional, organism-based
Leishmania major [3] = assay: Antileishmanial activity against Leishmania major promastigotes incubated for 24 hrs measured by alamar blue staining based fluorescence analysis; type: functional, organism-based
Leishmania major [4] = assay: Reversal of antileishmanial activity against Leishmania major promastigotes assessed as parasite survival at IC50 preincubated with 20 uM folinic acid for 1 hr followed by compound incubated for 48 hrs (reference value: 20%); type: functional
Leishmania major [5] = assay: Reversal of antileishmanial activity against Leishmania major promastigotes assessed as parasite survival at IC50 preincubated with 100 uM folinic acid for 1 hr followed by compound incubated for 48 hrs (reference value: 20%); type: functional
[6] = Selectivity index, ratio of CC50 for green monkey Vero cells to IC50 for antileishmanial activity against Leishmania major amastigotes; type: toxicity, cell-based; conditions: read-out: Ratio CC50/IC50
Leishmania major [7] = assay: Reversal of antileishmanial activity against Leishmania major promastigotes assessed as parasite survival at IC50 preincubated with 100 uM folic acid for 1 hr followed by compound incubated for 48 hrs (reference value: 20%); type: functional
[8] = Cytotoxicity against green monkey Vero cells incubated for 72 hrs by crystal violet staining analysis; type: toxicity, cell-based; conditions: chlorocebus sabaeus
Leishmania major [9] = assay: Reversal of antileishmanial activity against Leishmania major promastigotes assessed as parasite survival at IC50 preincubated with 20 uM folic acid for 1 hr followed by compound incubated for 48 hrs (reference value: 20%); type: functional
Leishmania tropica [10] = assay: Antileishmanial activity against Leishmania tropica promastigotes incubated for 24 hrs measured by alamar blue staining based fluorescence analysis; type: functional, organism-based
Leishmania tropica [11] = assay: Antileishmanial activity against Leishmania tropica amastigotes incubated for 24 hrs measured by alamar blue staining based fluorescence analysis; type: functional, organism-based
Leishmania major [12] = assay: Reversal of antileishmanial activity against Leishmania major promastigotes assessed as parasite survival at IC50 preincubated with 100 uM folinic acid for 1 hr followed by compound incubated for 48 hrs (reference value: 22%); type: functional
Leishmania major [13] = assay: Reversal of antileishmanial activity against Leishmania major promastigotes assessed as parasite survival at IC50 preincubated with 20 uM folic acid for 1 hr followed by compound incubated for 48 hrs (reference value: 22%); type: functional
Leishmania major [14] = assay: Reversal of antileishmanial activity against Leishmania major promastigotes assessed as parasite survival at IC50 preincubated with 100 uM folic acid for 1 hr followed by compound incubated for 48 hrs (reference value: 22%); type: functional
Leishmania major [15] = assay: Potency index, ratio of IC50 for miltefosine IC50 to test compound IC50 for antileishmanial activity against Leishmania major amastigotes; type: functional
Leishmania major [16] = assay: Reversal of antileishmanial activity against Leishmania major promastigotes assessed as parasite survival at IC50 preincubated with 20 uM folinic acid for 1 hr followed by compound incubated for 48 hrs (reference value: 22%); type: functional
Leishmania major [17] = assay: Antileishmanial activity against Leishmania major amastigotes incubated for 24 hrs measured by alamar blue staining based fluorescence analysis relative to control; type: functional
Leishmania major [18] = assay: Antileishmanial activity against Leishmania major promastigotes incubated for 24 hrs measured by alamar blue staining based fluorescence analysis relative to control; type: functional
Leishmania major [19] = assay: Reversal of antileishmanial activity against Leishmania major promastigotes assessed as parasite survival at IC50 preincubated with 100 uM folinic acid for 1 hr followed by compound incubated for 48 hrs (reference value: 24%); type: functional
Leishmania major [20] = assay: Reversal of antileishmanial activity against Leishmania major promastigotes assessed as parasite survival at IC50 preincubated with 20 uM folic acid for 1 hr followed by compound incubated for 48 hrs (reference value: 24%); type: functional
Leishmania major [21] = assay: Reversal of antileishmanial activity against Leishmania major promastigotes assessed as parasite survival at IC50 preincubated with 100 uM folic acid for 1 hr followed by compound incubated for 48 hrs (reference value: 24%); type: functional
Leishmania major [22] = assay: Reversal of antileishmanial activity against Leishmania major promastigotes assessed as parasite survival at IC50 preincubated with 20 uM folinic acid for 1 hr followed by compound incubated for 48 hrs (reference value: 24%); type: functional

Row | SMILES | Ratio IC50 (Leishmania major [1]) | IC50 (Leishmania major [2]) [nM] | IC50 (Leishmania major [3]) [nM] | also measured
1 | CCCCOc1ccc2cc(C(=O)NCCCCCCn3cc(CN4CCOCC4)nn3)c(=O)oc2c1 | 20 | 680 | 400 | Activity (Leishmania major [4]): 88%; Activity (Leishmania major [5]): 91%; selectivity ratio [6]: 359; Activity (Leishmania major [7]): 91%; CC50 at 72 h [8]: 244000 nM; Activity (Leishmania major [9]): 82%
2 | CCCCOc1ccc2cc(/C(C)=N/OCCCCCCn3cc(CN4CCCCC4)nn3)c(=O)oc2c1 | 2 | 4470 | 3870 | 
3 | O=C(N/N=C1\C(=O)N(CC(O)COc2cc(=O)oc3ccccc23)c2ccccc21)c1ccncc1 (stereo not given) |  |  |  | IC50 (Leishmania tropica [10]): 100 nM; IC50 (Leishmania tropica [11]): 870 nM
4 | CCCCOc1ccc2cc(/C(C)=N/OCCCCCCn3cc(CN4CCCC4)nn3)c(=O)oc2c1 | 10 | 990 | 780 | Activity (Leishmania major [12]): 87%; Activity (Leishmania major [13]): 74%; Activity (Leishmania major [14]): 81%; Ratio IC50 (Leishmania major [15]): 8; Activity (Leishmania major [16]): 79%; selectivity ratio [6]: 496; CC50 at 72 h [8]: 490000 nM
5 | CCCCOc1ccc2cc(C(=O)NCCCCCCn3cc(CN4C(=O)CSC4=O)nn3)c(=O)oc2c1 | 3 | 3880 | 2270 | Activity (Leishmania major [17]): 48%; Activity (Leishmania major [18]): 30%
6 | CCCCOc1ccc2cc(C(=O)NCCCCCCn3cc(CN4CCCC4)nn3)c(=O)oc2c1 | 13 | 810 | 590 | Activity (Leishmania major [19]): 94%; Activity (Leishmania major [20]): 76%; Activity (Leishmania major [21]): 84%; selectivity ratio [6]: 311; Activity (Leishmania major [22]): 83%; CC50 at 72 h [8]: 252000 nM
7 | CCCCOc1ccc2cc(/C(C)=N/OCCCCCCn3cc(CSC4=NC(=O)CS4)nn3)c(=O)oc2c1 | 2 | 4840 | 3730 | 
8 | CCCCOc1ccc2cc(/C(C)=N/OCCCCCCn3cc(CN4C(=O)CSC4=O)nn3)c(=O)oc2c1 | 3 | 3900 | 2830 | 
9 | CCCCOc1ccc2cc(C(=O)NCCCCCCn3cc(CN4CCCCC4)nn3)c(=O)oc2c1 | 7 | 1830 | 1210 | 
10 | CCCCOc1ccc2cc(/C(C)=N/OCCCCCCn3cc(CN4CCOCC4)nn3)c(=O)oc2c1 | 2 | 5290 | 4630 | 
11 | CCCCOc1ccc2cc(C(=O)NCCCCCCn3cc(CSC4=NC(=O)CS4)nn3)c(=O)oc2c1 | 3 | 3860 | 2350 | Activity (Leishmania major [17]): 48%; Activity (Leishmania major [18]): 30%
